{
  "source": "ChEMBL document CHEMBL1201862",
  "about": "“PubChem BioAssay data set” (2004)",
  "key": {"[1]": {"target": "E3 ubiquitin-protein ligase Mdm2/Protein Mdm4 (Homo sapiens, UniProt O15151+Q00987)", "sequence (Q00987 whole entry)": "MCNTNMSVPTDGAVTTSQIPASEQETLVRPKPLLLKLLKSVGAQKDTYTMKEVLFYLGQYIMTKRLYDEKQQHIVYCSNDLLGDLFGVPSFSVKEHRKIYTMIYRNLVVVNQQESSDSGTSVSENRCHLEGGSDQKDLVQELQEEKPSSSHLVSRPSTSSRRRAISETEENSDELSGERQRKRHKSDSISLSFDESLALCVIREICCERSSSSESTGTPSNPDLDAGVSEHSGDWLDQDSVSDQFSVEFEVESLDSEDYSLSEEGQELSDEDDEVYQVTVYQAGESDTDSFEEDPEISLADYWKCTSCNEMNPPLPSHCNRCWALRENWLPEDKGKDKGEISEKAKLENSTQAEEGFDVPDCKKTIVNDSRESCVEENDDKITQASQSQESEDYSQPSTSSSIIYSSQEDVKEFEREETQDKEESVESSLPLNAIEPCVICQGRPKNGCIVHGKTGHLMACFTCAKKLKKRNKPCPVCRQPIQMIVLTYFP", "sequence (O15151 whole entry)": "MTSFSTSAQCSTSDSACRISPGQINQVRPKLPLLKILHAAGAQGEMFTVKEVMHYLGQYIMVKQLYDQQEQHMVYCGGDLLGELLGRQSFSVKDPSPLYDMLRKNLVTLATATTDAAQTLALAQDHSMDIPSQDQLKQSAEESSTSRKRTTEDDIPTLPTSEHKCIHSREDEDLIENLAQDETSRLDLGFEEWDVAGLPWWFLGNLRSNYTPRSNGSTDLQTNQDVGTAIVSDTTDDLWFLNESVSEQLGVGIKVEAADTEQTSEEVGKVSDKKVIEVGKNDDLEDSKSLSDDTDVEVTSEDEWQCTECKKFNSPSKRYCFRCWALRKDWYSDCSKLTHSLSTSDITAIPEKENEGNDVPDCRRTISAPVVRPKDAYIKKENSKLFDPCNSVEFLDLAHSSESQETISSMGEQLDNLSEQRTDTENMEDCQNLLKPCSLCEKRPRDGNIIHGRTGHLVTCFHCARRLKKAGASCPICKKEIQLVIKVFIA", "assay": "Mdm2-MdmX interaction inhibitors, dose response, luminescence detection (AID 504593)", "type": "functional"}, "[2]": {"system": "HT-1080", "assay": "cytotoxicity in HT1080 fibrosarcoma cells, cell-based, fluorescence readout (AID 620)", "type": "functional", "conditions": "Homo sapiens"}, "[3]": {"target": "Luciferin 4-monooxygenase (Photinus pyralis, UniProt P08659)", "sequence (P08659 whole entry)": "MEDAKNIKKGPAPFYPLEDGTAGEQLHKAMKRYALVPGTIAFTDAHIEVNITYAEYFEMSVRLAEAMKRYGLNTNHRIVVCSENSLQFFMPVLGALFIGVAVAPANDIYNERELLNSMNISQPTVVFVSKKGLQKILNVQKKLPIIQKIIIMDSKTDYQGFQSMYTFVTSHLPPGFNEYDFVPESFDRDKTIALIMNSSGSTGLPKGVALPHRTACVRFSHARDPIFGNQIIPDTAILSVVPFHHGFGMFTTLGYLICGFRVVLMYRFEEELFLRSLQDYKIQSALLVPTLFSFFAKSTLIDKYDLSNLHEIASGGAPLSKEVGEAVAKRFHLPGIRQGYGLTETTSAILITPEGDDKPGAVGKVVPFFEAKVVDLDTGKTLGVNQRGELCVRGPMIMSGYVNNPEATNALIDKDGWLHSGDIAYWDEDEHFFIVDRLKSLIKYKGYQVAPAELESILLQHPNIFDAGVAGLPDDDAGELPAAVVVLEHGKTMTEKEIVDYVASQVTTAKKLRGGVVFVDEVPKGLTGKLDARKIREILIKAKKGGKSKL", "assay": "Counter Screen for Luciferase-based Assay Positives. [Related pubchem assays: 620, 618, 411 ]"}, "[4]": {"target": "Aryl hydrocarbon receptor (Homo sapiens, UniProt P35869)", "sequence (P35869 whole entry)": "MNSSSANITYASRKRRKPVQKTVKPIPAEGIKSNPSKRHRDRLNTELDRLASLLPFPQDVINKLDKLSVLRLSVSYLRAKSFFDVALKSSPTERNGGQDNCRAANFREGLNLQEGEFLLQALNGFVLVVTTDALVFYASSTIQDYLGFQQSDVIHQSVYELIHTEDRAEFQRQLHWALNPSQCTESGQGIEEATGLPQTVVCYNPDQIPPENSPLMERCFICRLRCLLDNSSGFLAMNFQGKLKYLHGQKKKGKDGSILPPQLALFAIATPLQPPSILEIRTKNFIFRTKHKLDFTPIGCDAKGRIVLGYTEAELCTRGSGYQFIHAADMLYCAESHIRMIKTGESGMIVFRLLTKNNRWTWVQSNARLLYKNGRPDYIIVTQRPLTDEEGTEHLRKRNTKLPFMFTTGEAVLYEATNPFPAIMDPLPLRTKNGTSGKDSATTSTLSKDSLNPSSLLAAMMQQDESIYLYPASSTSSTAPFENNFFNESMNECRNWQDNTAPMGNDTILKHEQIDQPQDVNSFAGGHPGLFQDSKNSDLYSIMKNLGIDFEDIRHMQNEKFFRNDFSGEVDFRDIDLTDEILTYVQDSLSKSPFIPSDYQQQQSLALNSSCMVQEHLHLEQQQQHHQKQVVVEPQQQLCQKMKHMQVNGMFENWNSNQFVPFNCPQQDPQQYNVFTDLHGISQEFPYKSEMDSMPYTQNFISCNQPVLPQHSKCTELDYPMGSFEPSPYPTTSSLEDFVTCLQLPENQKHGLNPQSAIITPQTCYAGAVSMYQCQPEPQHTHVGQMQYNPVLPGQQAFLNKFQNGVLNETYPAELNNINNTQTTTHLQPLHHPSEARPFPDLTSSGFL", "assay": "Luminescence-based cell-based high throughput dose response assay for activators of the Aryl Hydrocarbon Receptor (AHR). [Related pubchem assays: 2796 (Primary screen (AHR activators in singlicate)), 2845 (Confirmation screen (AHR activators in triplicate)), 434939 (Counterscreen (PXR activators in triplicate)), 2804 (Summary (AHR activators))]", "type": "ADME"}},
  "note": "The source made the active and inactive calls.",
  "data": [
    {"smiles": "Cc1nc(NC2=NCN(CCCN3CCOCC3)CN2)nc2c(C)cccc12", "values": [
      {"measurement": "IC50", "setting": "[1]", "value": "3.92 µM (active)"},
      {"measurement": "EC50", "setting": "[2]", "value": "51.5 µM (not active)"},
      {"measurement": "EC50", "setting": "[3]", "value": "3.36 µM (active)"},
      {"measurement": "EC50", "setting": "[4]", "value": "12.1 µM (not active)"}
    ]}
  ]
}
